Data as given in patent US6987088B2, “Compounds that bind HER2” (Genentech, Inc., priority 1999, dated 2006).
“Also recorded” adds a separate entry of the source. Where no end group is shown, it is not given here.

Experiments:
HER2 expressed on cells = target: T1, HER2 expressed on cells (Homo sapiens, UniProt P04626); assay: Cell binding by FACS analysis (BT 474, MDA 361, BaF3); assay type: cell-based; conditions: BT 474 (3×10^6 receptors/cell), MDA 361 (4×10^5 receptors/cell), BaF3 (no HER2); 0, 0.5 or 5 μM
T1 construct: Cells expressing HER2 (BT 474 [3+], MDA 361 [2+], and BaF3 [0+]); endogenous in cells; host or cells: BT 474, MDA 361 (BaF3 as control line without HER2)

HER2-ECD [1] = target: T2, HER2-ECD (Homo sapiens, UniProt P04626); assay: HER2 competition ELISA (block binding of 1.1.FI-Zb to immobilized HER2-ECD); conditions: for IC50: read-out: IC50, block binding of 1.1.FI-Zb to immobilized HER2, HER2 competition ELISA, 40 nM biotinylated 1.1.FI-Z; for HER2 binding activity of Superdex 75 fractions (active species): monomer and dimer fractions assayed in HER2 competition ELISA
T2 construct: immobilized extracellular domain of Erb2 (HER2-ECD, Hudziak et al. (1991) J. Biol. Chem. 266:24109-15)
Procedure: By way of exemplification and not limitation an ELISA assay can be conducted wherein microtiter plates (for example, Nunc Maxisorp™ 96-well plates, Inter Med, Denmark) are coated with HER2-ECD in 50 mM ammonium bicarbonate, pH 9.3, using 5 μg/ml, overnight at 4° C. Wells can be blocked using PBS containing 1% BSA (PBS-BSA) for 1 hr at 25° C. […] Following an incubation of about 1 hour the plate is washed with PBS-TWEEN and Strepavidin-HRP is added for about 30 min. Plates are washed again with PBS-TWEEN and the bound HRP assayed using ABTS/H2O2 substrate. The change in absorbance at 405 nm is monitored. Decrease in absorbance is plotted vs. sample concentration and an IC50 for each candidate peptide ligand is determined.
Following a 1 h incubation the plate was washed with PBS-Tween and Strepavidin/HRP conjugate (Streptavidin-POD, Roche Molecular Biochemicals) was added for 30 min. Plates were washed again with PBS-Tween and the bound HRP was assayed using ABTS/H2O2 substrate (Kirkegaard & Perry Laboratories) and the absorbance at 405 nm was monitored. […] Fractions from the HPLC were tested for their ability to compete in the HER2 competition ELISA.

HER2-ECD [2] = target: T2, HER2-ECD; assay: Phage binding assay, immobilized HER2-ECD
Procedure: (§1) • Selection Conditions—HER2-ECD was immobilized directly to maxisorp plates in 50 mM ammonium bicarbonate, pH 9.3, using 5 μg/ml, overnight at 4° C. Wells were blocked using PBS containing 1% BSA (PBS-BSA) for 1 hr at 25° C. Phage from each pool were incubated in wells containing HER2-ECD in PBS-BSA for 3 hr at 25° C.; generally about 5×10^10 phage were added at the beginning of each round. Unbound phage were removed by repetitive washing with PBS containing 0.05% Tween 20 (PBS-Tween); remaining phage were eluted with 500 mM KCl, 10 mM HCl, pH 2. The eluted phage were then amplified in XL1-Blue cells with VCSM13 helper phage (Stratagene) overnight at 37° C. IPTG (10 μM) was added only to the initial phage libraries and during amplification following round 1; later rounds relied on basal expression of the tac promoter for production of peptide-pVIII expression. Enrichment was monitored by titering the number of phage which bound to a target coated well compare to a well coated with BSA. • HER2 Phage Binding Assay—Inhibition of binding of phage displaying a single copy of peptide 1.1FI (Table 1) on their surface to the immobilized extracellular domain of Erb2 (HER2-ECD, Hudziak et al. (1991) J. Biol. Chem. 266:24109-15) was monitored using a phage ELISA. HER2-ECD was immobilized directly to Maxisorp plates (Nunc) in 50 mM ammonium bicarbonate, pH 9.3, using 5 μg/ml, overnight at 4° C. Wells were blocked using PBS containing 1% BSA (PBS-BSA) for 1 h at 25° C. Dilutions of 1.1FI-Fc in PBS-BSA were tested for their ability to block the binding of 1.1FI displaying phage to the immobilized HER2-ECD. The microtiter plate was washed with PBS containing 0.05% Tween20 (PBS-Tween) and the phage bound to HER2-ECD were detected with an anti-gVIII/HRP monoclonal antibody conjugate (Amersham Pharmacia Biotech). The amount of HRP bound Was measured using ABTS/H2O2 substrate and monitoring the change at 405 nm. Results • Selection of Polyvalent Peptide-Phage That Bind to HER2-ECD—Polyvalent peptide libraries were sorted in 7 pools (Table 1) against immobilized HER2-ECD. […]

HER3 = HER3 (Homo sapiens, UniProt P21860); assay: Phage binding assay, HER3
HER3, sequence (P21860 20-1342, species assumed): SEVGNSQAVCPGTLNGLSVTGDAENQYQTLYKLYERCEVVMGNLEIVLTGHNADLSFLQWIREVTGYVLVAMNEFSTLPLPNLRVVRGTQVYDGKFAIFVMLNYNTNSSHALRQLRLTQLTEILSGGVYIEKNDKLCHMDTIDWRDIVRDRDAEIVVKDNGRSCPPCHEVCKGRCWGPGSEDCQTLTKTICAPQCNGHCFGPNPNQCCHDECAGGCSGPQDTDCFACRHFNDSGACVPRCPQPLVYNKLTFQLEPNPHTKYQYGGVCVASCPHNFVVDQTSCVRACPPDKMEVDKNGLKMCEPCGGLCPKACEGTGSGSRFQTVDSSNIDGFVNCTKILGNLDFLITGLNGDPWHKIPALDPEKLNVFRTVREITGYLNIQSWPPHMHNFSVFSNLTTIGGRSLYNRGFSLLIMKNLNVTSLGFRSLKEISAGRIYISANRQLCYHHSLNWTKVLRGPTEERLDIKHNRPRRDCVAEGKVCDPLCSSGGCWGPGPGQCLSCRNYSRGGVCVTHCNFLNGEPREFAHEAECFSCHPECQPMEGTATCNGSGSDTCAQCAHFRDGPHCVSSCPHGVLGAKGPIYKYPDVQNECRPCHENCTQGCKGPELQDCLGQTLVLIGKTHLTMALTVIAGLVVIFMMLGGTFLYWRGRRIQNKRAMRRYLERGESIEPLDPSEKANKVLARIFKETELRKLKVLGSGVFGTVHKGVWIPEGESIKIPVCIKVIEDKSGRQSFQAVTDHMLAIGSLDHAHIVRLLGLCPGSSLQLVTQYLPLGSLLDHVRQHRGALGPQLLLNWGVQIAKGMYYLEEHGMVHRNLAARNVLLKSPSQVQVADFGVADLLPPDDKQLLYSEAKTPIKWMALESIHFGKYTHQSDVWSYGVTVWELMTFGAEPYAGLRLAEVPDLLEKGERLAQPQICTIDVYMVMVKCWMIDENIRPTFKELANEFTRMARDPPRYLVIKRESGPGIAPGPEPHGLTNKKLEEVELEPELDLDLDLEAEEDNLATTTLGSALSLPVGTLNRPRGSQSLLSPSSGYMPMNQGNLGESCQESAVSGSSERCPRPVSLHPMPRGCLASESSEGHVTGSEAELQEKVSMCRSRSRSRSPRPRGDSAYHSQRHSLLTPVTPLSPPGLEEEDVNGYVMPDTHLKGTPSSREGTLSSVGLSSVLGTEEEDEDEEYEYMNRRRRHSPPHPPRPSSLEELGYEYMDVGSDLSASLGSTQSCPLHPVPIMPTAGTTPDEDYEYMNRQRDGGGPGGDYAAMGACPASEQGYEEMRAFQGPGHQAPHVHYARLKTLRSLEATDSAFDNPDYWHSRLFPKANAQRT

HER4 = HER4 (Homo sapiens, UniProt Q15303); assay: Phage binding assay, HER4
HER4, sequence (Q15303 26-1308, species assumed): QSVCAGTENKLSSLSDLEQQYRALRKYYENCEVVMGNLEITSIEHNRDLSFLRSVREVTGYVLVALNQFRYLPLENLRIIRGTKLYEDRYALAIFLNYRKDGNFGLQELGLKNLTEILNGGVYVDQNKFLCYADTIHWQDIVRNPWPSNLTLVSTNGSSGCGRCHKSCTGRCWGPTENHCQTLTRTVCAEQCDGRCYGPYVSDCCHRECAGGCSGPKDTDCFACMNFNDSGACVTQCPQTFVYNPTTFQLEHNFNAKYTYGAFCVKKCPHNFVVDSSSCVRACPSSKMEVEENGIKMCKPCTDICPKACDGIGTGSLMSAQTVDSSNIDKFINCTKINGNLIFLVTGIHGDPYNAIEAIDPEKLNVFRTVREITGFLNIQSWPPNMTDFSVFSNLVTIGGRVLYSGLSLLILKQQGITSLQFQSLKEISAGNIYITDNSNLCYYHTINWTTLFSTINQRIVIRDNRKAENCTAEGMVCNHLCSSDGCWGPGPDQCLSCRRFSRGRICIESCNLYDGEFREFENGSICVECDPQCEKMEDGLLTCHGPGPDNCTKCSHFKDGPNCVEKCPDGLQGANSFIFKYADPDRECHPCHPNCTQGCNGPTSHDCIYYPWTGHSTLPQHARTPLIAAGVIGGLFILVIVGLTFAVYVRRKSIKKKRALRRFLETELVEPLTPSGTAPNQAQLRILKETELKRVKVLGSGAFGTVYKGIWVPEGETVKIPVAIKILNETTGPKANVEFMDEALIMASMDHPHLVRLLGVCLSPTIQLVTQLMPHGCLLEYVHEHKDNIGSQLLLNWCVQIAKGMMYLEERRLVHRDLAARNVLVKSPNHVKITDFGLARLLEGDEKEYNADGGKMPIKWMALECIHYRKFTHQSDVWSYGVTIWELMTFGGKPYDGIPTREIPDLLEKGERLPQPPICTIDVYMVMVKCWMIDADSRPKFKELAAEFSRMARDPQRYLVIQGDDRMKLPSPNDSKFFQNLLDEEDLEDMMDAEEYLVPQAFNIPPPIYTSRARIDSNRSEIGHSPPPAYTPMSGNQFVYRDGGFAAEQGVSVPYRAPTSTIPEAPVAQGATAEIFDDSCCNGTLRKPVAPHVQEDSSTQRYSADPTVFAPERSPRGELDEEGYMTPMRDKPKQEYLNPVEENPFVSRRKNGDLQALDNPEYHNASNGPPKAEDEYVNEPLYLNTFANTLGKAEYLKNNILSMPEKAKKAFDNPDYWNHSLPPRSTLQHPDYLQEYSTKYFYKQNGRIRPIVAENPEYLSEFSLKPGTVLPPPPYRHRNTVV

BSA = BSA (Bos taurus, UniProt P02769); assay: Phage binding assay, immobilized BSA
BSA, sequence (P02769 25-607): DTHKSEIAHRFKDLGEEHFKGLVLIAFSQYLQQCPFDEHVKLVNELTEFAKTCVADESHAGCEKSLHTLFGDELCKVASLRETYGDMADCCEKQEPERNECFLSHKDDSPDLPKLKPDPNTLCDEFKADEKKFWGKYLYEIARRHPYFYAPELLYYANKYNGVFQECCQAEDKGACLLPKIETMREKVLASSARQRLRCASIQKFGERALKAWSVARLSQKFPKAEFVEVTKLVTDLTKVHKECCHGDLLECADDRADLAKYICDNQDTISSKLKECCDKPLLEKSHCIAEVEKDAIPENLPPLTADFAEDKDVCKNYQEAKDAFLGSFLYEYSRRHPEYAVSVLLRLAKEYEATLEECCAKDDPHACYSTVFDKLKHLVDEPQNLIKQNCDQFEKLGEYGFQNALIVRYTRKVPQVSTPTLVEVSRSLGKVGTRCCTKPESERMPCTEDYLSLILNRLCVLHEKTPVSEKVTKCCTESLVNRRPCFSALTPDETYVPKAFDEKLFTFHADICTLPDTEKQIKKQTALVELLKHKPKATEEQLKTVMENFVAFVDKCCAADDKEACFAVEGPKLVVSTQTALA
Procedure: as §1

immobilized HER2 = target: T3, immobilized HER2 (Homo sapiens, UniProt P04626); assay: Binding of Class 1 and Class 7 phage clones to immobilized HER2 in the presence of peptide
T3 construct: immobilized extracellular domain of Erb2 (HER2-ECD, Hudziak et al. (1991) J. Biol. Chem. 266:24109-15)

Substance	Phage binding to immobilized HER2-ECD (HER2-ECD [2])	Phage binding to HER3 (HER3)	Phage binding to HER4 (HER4)	Phage binding to immobilized BSA (BSA)	also measured
1.1.FI-Zb: biotinylated 1.1.FI-Z preparation (QVYESWGCIGPGCACLQACL; cysteine pairing not given here; also: biotinylated (NHS-LC-biotin), fused to Z domain (not in chain))					Binding to cells by FACS (HER2 expressed on cells): bind cells proportional to the number of HER2 receptors expressed on the cell
active fraction: HPLC fraction of trypsin-digested 1.1.FI-Z; mass corresponding to HER212 sequence, found to contain dimer (QVYESWGCIGPGCACLQACL; cysteine pairing not given here; also: fraction found to contain dimer)					IC50 (HER2-ECD [1]): 3 nM
(FI)2-Z: 1.1.FI sequence repeated twice and fused to the Z domain of protein A, single chain dimer (QVYESWGCIGPGCACLQACLGGGSGGQVYESWGCIGPGCACLQACL; cysteine pairing not given here; also: fused to the Z domain of protein A (end not given here))					HER2 binding activity of Superdex 75 fractions (active species) (HER2-ECD [1]): the active species was now identified as monomer; HER2 binding activity of Superdex 75 fractions (active species) (HER2-ECD [1]; listed as (1.1FI)2-Z): coinciding with monomer fractions
CSWVLVQCGGEWWHCCGLGCGLVVNAC (cysteine pairing not given here) [7.1]	bind	not	not	not	
YSFEGWGCIGPGCAYLFEGH (cysteine pairing not given here) [HER201]					Blocking of binding of Class 1 and Class 7 phage to immobilized HER2 (immobilized HER2): block the binding of both Class 1 and Class 7 phage
YEVEAWDCMGPGCANLFEAH [1.1]	bind	not	not	not	
R S C A D V A S R C W E H C I T [5.1]	bind	not	not	not	
1.1.FI-Z: peptide 1.1.FI expressed and secreted from E. coli as a fusion to the Z domain of protein A (QVYESWGCIGPGCACLQACL)					HER2 binding activity of Superdex 75 fractions (active species) (HER2-ECD [1]): coincided with the dimer fractions rather than the monomer fractions; also recorded: coinciding with dimer fractions; IC50 (HER2-ECD [1]): 50 nM
